Assay results: US5399543A, “3-[4-(phenylmethoxy)phenyl]-1-substituted-6-haloalkyl-uracil herbicides” (FMC Corporation, priority 1993, dated 1995)

How the values were obtained:
Blackgrass [1] = experiment: Postemergence herbicidal activity, blackgrass; assay type: in vivo, Aloepecurus myosuroides; settings: Alopecurus myosuroides, post-emergence, 0.3 kg/ha, after 17-21 days, read-out: Postemergence herbicidal activity (% control), Blackgrass
Protocol: (§1) The 3-[4-(phenylmethoxy)phenyl]-1-substituted-6-haloalkyluracil herbicides of this invention were tested for pre- and postemergence herbicidal activity using a variety of crops and weeds. The test plants included soybean (Glycine max var. Williams), field corn (Zea mays var. Agway 425X), wheat (Triticum aestivum var. Wheaton), morningglory (Ipomea lacunosa or Ipomea hederacea), velvetleaf (Abutilon theophrasti), green foxtail (Setaria viridis), Johnsongrass (Sorghum halepense), blackgrass (Aloepecurus myosuroides), common chickweed (Stellaria media), and common cocklebur (Xanthium pensylvanicum).
(§2) For preemergence testing, two disposable fiber flats (8 cm×15 cm×25 cm) for each rate of application of each candidate herbicide were filled to an approximate depth of 6.5 cm with steam-sterilized sandy loam soil. The soil was leveled and impressed with a template to provide five evenly spaced furrows 13 cm long and 0.5 cm deep in each flat. Seeds of soybean, wheat, corn, green foxtail, and johnsongrass were planted in the furrows of the first flat, and seeds of velvetleaf, morningglory, common chickweed, cocklebur, and blackgrass were planted in the furrows of the second flat. The five-row template was employed to firmly press the seeds into place. A topping soil of equal portions of sand and sandy loam soil was placed uniformly on top of each flat to a depth of approximately 0.5 cm. Flats for postemergence testing were prepared in the same manner except that they were planted 8-12 days prior to the preemergence flats and were placed in a greenhouse and watered, thus allowing the seeds to germinate and the foliage to develop.
(§3) In both pre- and postemergence tests, a stock solution of the candidate herbicide was prepared by dissolving 0.27 g of the compound in 20 mL of water/acetone (50/50) containing 0.5% v/v sorbitan monolaurate. For an application rate of 3000 g/ha of herbicide a 10 mL portion of the stock solution was diluted with water/acetone (50/50) to 45 mL.
(§4) The preemergence flats were initially subjected to a light water spray. The four flats were placed two by two along a conveyor belt (i.e., the two preemergence followed by the two postemergence flats). The conveyor belt fed under a spray nozzle mounted about ten inches above the postemergent foliage. The preemergent flats were elevated on the belt so that the soil surface was at the same level below the spray nozzle as the foliage canopy of the postemergent plants. The spray of herbicidal solution was commenced and once stabilized, the flats were passed under the spray at a speed to receive a coverage equivalent of 1000 L/ha. At this coverage the application rates are those shown in the above table for the individual herbicidal solutions. The preemergence flats were watered immediately thereafter, placed in the greenhouse and watered regularly at the soil surface. The postemergence flats were immediately placed in the greenhouse and not watered until 24 hours after treatment with the test solution. Thereafter they were regularly watered at ground level. After 17-21 days the plants were examined and the phytotoxicity data were recorded.
(§5) Herbicidal activity data at selected application rates are given for various compounds of this invention in Table 2 and Table 3. The test compounds are identified by numbers which correspond to those in Table 1.
(§6) Phytotoxicity data were taken as percent control. Percent control was determined by a method similar to the 0 to 100 rating system disclosed in "Research Methods in Weed Science," 2nd ed., B. Truelove, Ed.; Southern Weed Science Society; Auburn University, Auburn, Ala., 1977.

Corn [2] = experiment: Postemergence herbicidal activity, corn; assay type: in vivo, Zea mays var. Agway 425X; settings: Zea mays, post-emergence, 0.3 kg/ha, after 17-21 days, read-out: Postemergence herbicidal activity (% control), Corn
Protocol: as §1, §2, §3, §4, §5, §6

Blackgrass [3] = experiment: Preemergence herbicidal activity, blackgrass; assay type: in vivo, Aloepecurus myosuroides; settings: Alopecurus myosuroides, pre-emergence, 0.3 kg/ha, after 17-21 days, read-out: Preemergence herbicidal activity (% control), Blackgrass
Protocol: as §1, §2, §3, §4, §5, §6

Chickweed [4] = experiment: Preemergence herbicidal activity, chickweed; assay type: in vivo; settings: Stellaria media, pre-emergence, 0.3 kg/ha, after 17-21 days, read-out: Preemergence herbicidal activity (% control), Chickweed
Protocol: as §1, §2, §3, §4, §5, §6

Chickweed [5] = experiment: Postemergence herbicidal activity, chickweed; assay type: in vivo; settings: Stellaria media, post-emergence, 0.3 kg/ha, after 17-21 days, read-out: Postemergence herbicidal activity (% control), Chickweed
Protocol: as §1, §2, §3, §4, §5, §6

Velvetleaf [6] = experiment: Preemergence herbicidal activity, velvetleaf; assay type: in vivo; settings: Abutilon theophrasti, pre-emergence, 0.3 kg/ha, after 17-21 days, read-out: Preemergence herbicidal activity (% control), Velvetleaf
Protocol: as §1, §2, §3, §4, §5, §6

Velvetleaf [7] = experiment: Postemergence herbicidal activity, velvetleaf; assay type: in vivo; settings: Abutilon theophrasti, post-emergence, 0.3 kg/ha, after 17-21 days, read-out: Postemergence herbicidal activity (% control), Velvetleaf
Protocol: as §1, §2, §3, §4, §5, §6

Johnsongrass [8] = experiment: Preemergence herbicidal activity, johnsongrass; assay type: in vivo; settings: Sorghum halepense, pre-emergence, 0.3 kg/ha, after 17-21 days, read-out: Preemergence herbicidal activity (% control), Johnsongrass
Protocol: as §1, §2, §3, §4, §5, §6

Green foxtail [9] = experiment: Preemergence herbicidal activity, green foxtail; assay type: in vivo; settings: Setaria viridis, pre-emergence, 0.3 kg/ha, after 17-21 days, read-out: Preemergence herbicidal activity (% control), Green foxtail
Protocol: as §1, §2, §3, §4, §5, §6

Wheat [10] = experiment: Preemergence herbicidal activity, wheat; assay type: in vivo, Triticum aestivum var. Wheaton; settings: Triticum aestivum, pre-emergence, 0.3 kg/ha, after 17-21 days, read-out: Preemergence herbicidal activity (% control), Wheat
Protocol: as §1, §2, §3, §4, §5, §6

Morningglory [11] = experiment: Preemergence herbicidal activity, morningglory; assay type: in vivo, Ipomea lacunosa or Ipomea hederacea; settings: Ipomoea, pre-emergence, 0.3 kg/ha, after 17-21 days, read-out: Preemergence herbicidal activity (% control), Morningglory
Protocol: as §1, §2, §3, §4, §5, §6

Cocklebur [12] = experiment: Preemergence herbicidal activity, cocklebur; assay type: in vivo, Xanthium pensylvanicum; settings: Xanthium strumarium, pre-emergence, 0.3 kg/ha, after 17-21 days, read-out: Preemergence herbicidal activity (% control), Cocklebur
Protocol: as §1, §2, §3, §4, §5, §6

Wheat [13] = experiment: Postemergence herbicidal activity, wheat; assay type: in vivo, Triticum aestivum var. Wheaton; settings: Triticum aestivum, post-emergence, 0.3 kg/ha, after 17-21 days, read-out: Postemergence herbicidal activity (% control), Wheat
Protocol: as §1, §2, §3, §4, §5, §6

Cocklebur [14] = experiment: Postemergence herbicidal activity, cocklebur; assay type: in vivo, Xanthium pensylvanicum; settings: Xanthium strumarium, post-emergence, 0.3 kg/ha, after 17-21 days, read-out: Postemergence herbicidal activity (% control), Cocklebur
Protocol: as §1, §2, §3, §4, §5, §6

Soybean [15] = experiment: Postemergence herbicidal activity, soybean; assay type: in vivo, Glycine max var. Williams; settings: Glycine max, post-emergence, 0.3 kg/ha, after 17-21 days, read-out: Postemergence herbicidal activity (% control), Soybean
Protocol: as §1, §2, §3, §4, §5, §6

Soybean [16] = experiment: Preemergence herbicidal activity, soybean; assay type: in vivo, Glycine max var. Williams; settings: Glycine max, pre-emergence, 0.3 kg/ha, after 17-21 days, read-out: Preemergence herbicidal activity (% control), Soybean
Protocol: as §1, §2, §3, §4, §5, §6

Corn [17] = experiment: Preemergence herbicidal activity, corn; assay type: in vivo, Zea mays var. Agway 425X; settings: Zea mays, pre-emergence, 0.3 kg/ha, after 17-21 days, read-out: Preemergence herbicidal activity (% control), Corn
Protocol: as §1, §2, §3, §4, §5, §6

Morningglory [18] = experiment: Postemergence herbicidal activity, morningglory; assay type: in vivo, Ipomea lacunosa or Ipomea hederacea; settings: Ipomoea, post-emergence, 0.3 kg/ha, after 17-21 days, read-out: Postemergence herbicidal activity (% control), Morningglory
Protocol: as §1, §2, §3, §4, §5, §6

Green foxtail [19] = experiment: Postemergence herbicidal activity, green foxtail; assay type: in vivo; settings: Setaria viridis, post-emergence, 0.3 kg/ha, after 17-21 days, read-out: Postemergence herbicidal activity (% control), Green foxtail
Protocol: as §1, §2, §3, §4, §5, §6

Johnsongrass [20] = experiment: Postemergence herbicidal activity, johnsongrass; assay type: in vivo; settings: Sorghum halepense, post-emergence, 0.3 kg/ha, after 17-21 days, read-out: Postemergence herbicidal activity (% control), Johnsongrass
Protocol: as §1, §2, §3, §4, §5, §6

Row | SMILES | activity at 300 g/ha (Blackgrass [1]) [%] | activity at 300 g/ha (Corn [2]) [%] | activity at 300 g/ha (Blackgrass [3]) [%] | activity at 300 g/ha (Chickweed [4]) [%] | activity at 300 g/ha (Chickweed [5]) [%] | activity at 300 g/ha (Velvetleaf [6]) [%] | activity at 300 g/ha (Velvetleaf [7]) [%] | activity at 300 g/ha (Johnsongrass [8]) [%] | activity at 300 g/ha (Green foxtail [9]) [%] | activity at 300 g/ha (Wheat [10]) [%] | activity at 300 g/ha (Morningglory [11]) [%] | activity at 300 g/ha (Cocklebur [12]) [%] | activity at 300 g/ha (Wheat [13]) [%] | activity at 300 g/ha (Cocklebur [14]) [%] | activity at 300 g/ha (Soybean [15]) [%] | activity at 300 g/ha (Soybean [16]) [%] | activity at 300 g/ha (Corn [17]) [%] | activity at 300 g/ha (Morningglory [18]) [%] | activity at 300 g/ha (Green foxtail [19]) [%] | activity at 300 g/ha (Johnsongrass [20]) [%]
1 | Cc1cc(OCc2ccccc2)ccc1-n1c(=O)cc(C(F)(F)F)n(C)c1=O [Compound 12] | 0 | 0 | 0 | 0 | 0 | 60 | 30 | 60 | 80 | 0 | 10 | 0 | 0 | 0 | 20 | 10 | 40 | 20 | 50 | 0
2 | Cn1c(C(F)(F)F)cc(=O)n(-c2ccc(OCc3ccccc3)cc2)c1=O [Compound 1] | 10 | 30 | 10 | 90 | 95 | 100 | 100 | 75 | 100 | 10 | 100 | 75 | 0 | 80 | 80 | 75 | 60 | 95 | 90 | 60
3 | Cn1c(C(F)(F)F)cc(=O)n(-c2ccc(OCc3ccc(F)cc3)cc2)c1=O [Compound 5] | 30 | 75 | 20 | 100 | 100 | 100 | 100 | 90 | 100 | 20 | 100 | 40 | 0 | 100 | 90 | 60 | 50 | 100 | 90 | 75
4 | Cn1c(C(F)(F)F)cc(=O)n(-c2ccc(OCc3ccc(Cl)c(Cl)c3)cc2)c1=O [Compound 41] | 0 | 25 | 20 | 95 | 85 | 100 | 100 | 20 | 95 | 0 | 80 | 20 | 0 | 100 | 85 | 40 | 0 | 100 | 45 | 35
5 | Cn1c(C(F)(F)F)cc(=O)n(-c2ccc(OCc3ccc(Cl)cc3Cl)cc2)c1=O [Compound 6] | 0 | 20 | 0 | 10 | 0 | 100 | 80 | 60 | 100 | 0 | 45 | 10 | 0 | 60 | 40 | 20 | 10 | 50 | 40 | 20
